Series [1] concerns Huh7 cells expressing a subgenomic RNA replicon of Con1 (genotype 1b). Put plainly: HCV replicon assay (luciferase, SteadyLite), Example 1. As to conditions: single agent; for IC50: read-out: IC50 (concentration required to achieve 50% inhibition of viral replication); for Emax: read-out: Max Eff (maximum effect, inhibition of viral replication). Format: cell-based. The procedure:
The HCV replicon assay enables screening of compounds with antiviral activity against HCV viral RNA replication. Huh7 cells expressing a subgenomic RNA replicon of Con1 (genotype 1b) sequence origin and expressing the reporter enzyme luciferase were obtained from ReBLikon, GmBH. In order to perform the assay, replicon cells were seeded on a 384-well plate at 4,000 cells/well in a total volume of 30 μL well. The plated cells were incubated at 37° C., 5% CO2. Pre-diluted compounds at a 10× concentration were added to each well to achieve the desired final concentration. Plates were centrifuged at 900×g, 1 minute following the addition of compounds. Cells were incubated an additional 48 hours or 72 hours at 37° C., 5% CO2. Plates were removed from the incubator 30 minutes to 1 hour prior to the addition of 25 μL/well of SteadyLite luciferase assay reagent from Perkin Elmer in order to equilibrate plates to room temperature. Following the addition of SteadyLite reagent, cells were allowed to incubate for 10 minutes prior to collecting data with a luminometer. Antiviral activity was quantified by the inhibition of luciferase activity.
For screens involving a combination of compounds, a synergy score was calculated by the formula S=log fX log fYΣIdata(Idata−/ILoewe), summed over all non-single-agent concentration pairs, and where log fX,Y are the natural logarithm of the dilution factors used for each single agent. This effectively calculates a volume between the measured and Loewe additive response surfaces, weighted towards high inhibition and corrected for varying dilution factors. […] In general, the magnitude of the synergy score indicates the strength of the synergistic interaction.

The subject of series [2] is HCV genotype 1b subgenomic replicon. Put plainly: cHTS luciferase assay (viral inhibition) in Huh-luc/neo-ET cells, Experiment 2. It is filed as cell-based. Conditions: single agent; for IC50: Hepatitis C virus, Huh-luc/neo-ET, replicon luciferase activity, 48 hours, read-out: IC50, HCV replication. The procedure: (§1) The human hepatoma cell line Huh-7^1 and Huh-luc/neo-ET cells (ReBLikon, GmbH) were maintained in Dulbecco's modified Eagle's medium (DMEM; Gibco Invitrogen) supplemented with 10% Fetal Bovine Serum (FBS, Gibco Invitrogen),1% Penicillin/Streptomycin (Gibco Invitrogen), 1% Gluta MAX-1 (Gibco Invitrogen) and 1% Non-Essential Amino Acids Solution (Gibco Invitrogen) at 37° C., 5% CO2. Huh-luc/neo-ET cells were grown in medium additionally supplemented with 250 ug/ml Geneticin (G418, Gibco Invitrogen). These cells stably express an HCV genotype 1b subgenomic replicon encoding firefly (Photinus pyralis) luciferase, the coding sequence for ubiquitin and neomycin phosphotransferase downstream of the HCV IRES and upstream of an EMCV IRES which mediates translation of downstream viral nonstructural proteins NS3 to NS5B^2. For all experimental procedures Huh-luc/neo-ET and Huh-7 parental cells were seeded in DMEM without phenol red in the absence of G418 and Penicillin/Streptomycin (screening medium).
(§2) Cells were seeded in 30 μl of screening medium at 4000 cells/well on white (Huh-luc/neo-ET cells for viral inhibition assay) or black (Huh7 cells for proliferation inhibition assay) 384-well assay plates (Matrix) and incubated overnight for approximately 20 hours. Using a MiniTrak™ Robotic Liquid Handling System (Perkin-Elmer) 1 μl of compound stock solutions (1000× concentration in DMSO unless otherwise mentioned) in an X (2-fold dilutions of compound horizontally arrayed) or Y (2-fold dilutions of compound vertically arrayed) format was transferred from master plates into 384-well clear bottom plates containing 100 μl screening medium (dilution plates) and mixed thoroughly. From each X and Y dilution plate, 3.3 μl was subsequently transferred to the 384-well assay plates for a final compound dilution of 1:1000 generating a 9×9 (81-point) dose response matrix. The cells were then incubated for 48 hours prior to measuring luciferase activity (viral inhibition) or ATP depletion (proliferation inhibition). 25 μl of SteadyLite (Perkin-Elmer) was added to the white 384-well assay plates and 15 μl of ATPLite (Perkin-Elmer) was added to the black 384-well plates which were subsequently incubated at least 5 minutes before measuring the luminescent signal. All luminescence measurements were assayed for 0.1 sec per well with an EnVision™ Xcite multilabel automatic plate reader with Enhanced Luminescence (Perkin-Elmer) and expressed as the number of relative light units (RLU) detected. Compounds were assayed in duplicate 9×9 dose matrices on each plate and DMSO-only control wells were included as negative untreated controls.
Dose matrices were assembled from replicate combination blocks on experimental 384-well pates. Raw phenotype measurements T from each treated well were converted to normalized measures of inhibitory activity a=−log10(TN) or fractional inhibition I=1−T/V relative to the median V of 20 vehicle-treated wells arranged around the plate. After normalization, we calculated average activity values between replicate measurements at the same treatment doses, along with σ1σ1, the accompanying standard error estimates. Single agent responses were tested at eleven serially-diluted doses and combination data as 9×9 dose matrices each testing all pairs of 8 serially-diluted single agent concentrations along with their single agent doses as a control.
(§3) The resulting impact on viral replication, as measured by replicon luciferase activity, is shown as dose response curves in FIG. 1a. A host proliferation counterscreen measuring cellular ATP levels was assessed in parallel using the Huh7 parental cell line and the data were used to evaluate the selectivity of each probe. All of the compounds tested produced either increases (proviral) or decreases (antiviral) in replicon replication.
A general note: A replicon is a self-replicating genome or part of one, used to study replication in cells.

For series [3], the system named is Huh7 parental cell line. Put plainly: Host proliferation counterscreen measuring cellular ATP levels (ATPLite). Format: cell-based, human. The procedure:
as §1, §2, §3
Background: A counterscreen serves to expose hits that act by an unwanted route or on another target.

The subject of series [4] is HMGCR. Put plainly: HMGCR protein expression by western analysis in Huh7 cells. It is filed as cell-based, human. Conditions: Huh7 cells treated 16 hrs, GAPDH control.
Experimental: For protein expression analysis, Huh-luc/neo-ET cells were seeded in 4 ml of medium at 250,000 cells per well on 6-well plates and allowed to adhere for 6-8 hours. Stock solutions of compound were added at a 1:1000 dilution and cells were incubated in the presence of compound over 96 hours. Medium and compounds were refreshed once after an initial incubation of 48 hours. Cells were washed in phosphate-buffered saline (PBS, Invitrogen-Gibco) and lysed by the addition of 1× RIPA lysis buffer (0.5 M Tris-HCl, pH 7.4/1.5 M NaCl/2.5% deoxycholic acid/10% NP-40/10 mM EDTA, purchased from Upstate) containing Complete, Mini Protease inhibitor cocktail and PhosSTOP phosphatase inhibitor cocktail tablets (Roche) according to the manufacturer's recommendations. Cell lysates were rocked for 30 minutes at 4° C. and centrifuged at 10,000×g for 10 minutes at 4° C. The protein concentration of each extract was determined by BCA protein assay (Pierce) according to the manufacturer's protocol. […]
To determine the effects of our chemical inhibitors on HMGCR expression, we treated Huh7 cells with the listed concentrations of each chemical for 16 hrs (FIG. 4b). Cell lysates were extracted according to the methods and HMGCR protein expression was analyzed by SDS-PAGE separation and western staining with antibodies specific for HMGCR and GAPDH.
[5] abbreviates: single agent, Huh7 parental cells.

Consider 20 compounds from patent US20100092479A1, “Compositions and methods for treatment of viral diseases” (CombinatoRx (Singapore) Pte. Ltd., priority 2008, published 2010).

Structures can show the parent of a compound that is named as a salt. Where two headings read alike, the source gives them in different places.

For `Clc1ccccc1CNC[C@H]1CC[C@H](CNCc2ccccc2Cl)CC1` [AY-9944], in series [1] (Hepatitis C virus, Huh-7), the IC50 came out at 2520 nM and the Emax turned out to be 85%.

Turning to `CCC(C)(C)c1ccc(CC(C)CN2C[C@@H](C)O[C@@H](C)C2)cc1` (some centres unmarked) [Amorolfine hydrochloride, Amorolfine], in series [1] (Hepatitis C virus, Huh-7), the IC50 worked out at 7660 nM and the Emax is 62%.

In the case of `O=C(c1ccc(Cl)cc1)N1CCC(=Cc2ccc(C3=NCCO3)cc2)CC1` [BIBB-515], the Emax in series [1] (Hepatitis C virus, Huh-7) stood at 46%.

For the compound `CCN(CC)CCOc1ccc(/C(=C(\Cl)c2ccccc2)c2ccccc2)cc1` [Clomiphene citrate, Clomiphene], the Emax in series [1] (Hepatitis C virus, Huh-7) was found to be 86%.

Consider `CC(C)CCCC(C)[C@H]1CC(=O)C2=C3CC[C@H]4C[C@@H](O)CC[C@]4(C)C3CC[C@@]21C` (some centres unmarked) [Colestolone], for which, in series [1] (Hepatitis C virus, Huh-7), the IC50 came out at 1620 nM and the Emax came to 79%. For the same compound, the “HCV replication (replicon luciferase activity), result in words” value (shortened to “HCV replication”) in series [2] is given as “inhibited HCV replication”. In series [3] (setting [5]), the “impact on host cell ATP levels” value is recorded as “marginal impact”.

In the case of `CC(C)n1c(/C=C/C(O)CC(O)CC(=O)O)c(-c2ccc(F)cc2)c2ccccc21` (centres unmarked) [Fluvastatin], in series [1] (Hepatitis C virus, Huh-7), the IC50 amounted to 15800 nM and the Emax worked out at 65%.

As to `COC(=O)[C@H](CC(C)C)NC(=O)c1ccc(NC[C@@H](N)CS)cc1-c1ccccc1` [GGTI-286], in series [1] (Hepatitis C virus, Huh-7), the IC50 was 3700 nM and the Emax is 79%.

Regarding `O=C([O-])C[C@H](O)C[C@H](O)/C=C/c1c(C2CC2)nc2ccccc2c1-c1ccc(F)cc1.O=C([O-])C[C@H](O)C[C@H](O)/C=C/c1c(C2CC2)nc2ccccc2c1-c1ccc(F)cc1.[Ca+2]` [Itavastatin, calcium salt, Itavastatin], in series [1], the “Max Eff (maximum effect, inhibition of viral replication)” value amounted to 92 and the IC50 was 2300 nM.

Take `CC[C@H](C)C(=O)O[C@H]1C[C@@H](C)C=C2C=C[C@H](C)[C@H](CC[C@@H]3C[C@@H](O)CC(=O)O3)[C@H]21` [Lovastatin]: in series [1] (Hepatitis C virus, Huh-7), the IC50 was 1640 nM and the Emax was 102%.

As for `CC[C@H](C)C(=O)O[C@H]1CCC=C2C=C[C@H](C)[C@H](CC[C@@H]3C[C@@H](O)CC(=O)O3)[C@H]21` [Mevastatin], in series [1] (Hepatitis C virus, Huh-7), the IC50 came out at 600 nM and the Emax was 101%.

Turning to `CCCCCCC(=O)CCCCCC/C=C/C[C@@H](O)[C@H](O)[C@@](N)(CO)C(=O)O` [Myriocin], in series [1] (Hepatitis C virus, Huh-7), the Emax came to 33%.

For `C=CCN(C)CCCCCCOc1ccc(C(=O)c2ccc(Br)cc2)c(F)c1` [Ro 48-8071], in series [1] (Hepatitis C virus, Huh-7), the IC50 was found to be 60 nM and the Emax was determined as 66%. Moreover, in series [2], the IC50 was determined as 68.3 nM and the “HCV replication” value was “inhibited HCV replication”. In addition, the “impact on host cell ATP levels” value in series [3] (setting [5]) was “marginal impact”. Further, the HMGCR protein expression entry in series [4] is listed as “apparent overexpression”.

`CCOP(=O)(OCC)C(=Cc1cc(C(C)(C)C)c(O)c(C(C)(C)C)c1)P(=O)(OCC)OCC` [SR 12813]: the “Max Eff (maximum effect, inhibition of viral replication)” value in series [1] is reported as 47.

As for `CCC(C)(C)C(=O)O[C@H]1C[C@@H](C)C=C2C=C[C@H](C)[C@H](CC[C@@H]3C[C@@H](O)CC(=O)O3)[C@H]21` [Simvastatin], in series [1] (Hepatitis C virus, Huh-7), the IC50 was 14000 nM and the Emax amounted to 71%.

On to `CCCCCCCCCCCCCCOc1ccc(C(=O)O)o1` [TOFA, 5-(tetradecyloxy)-2-furancarboxylic acid], for which, in series [1] (Hepatitis C virus, Huh-7), the IC50 turned out to be 6250 nM and the Emax was found to be 95%.

Turning to `CCN(CC)CCOc1ccc(C(O)(Cc2ccc(Cl)cc2)c2ccc(C)cc2)cc1` (centres unmarked) [Triparanol], in series [1] (Hepatitis C virus, Huh-7), the IC50 is 1550 nM and the Emax worked out at 87%.

Take `CCN(CC)CCO[C@H]1CC[C@@]2(C)C(=CC[C@@H]3[C@@H]2CC[C@]2(C)C(=O)CC[C@@H]32)C1` [U18666A]: in series [2], the IC50 amounted to 19.4 nM and the “HCV replication” value is listed as “inhibited HCV replication”. In series [3] (setting [5]), the “impact on host cell ATP levels” value is reported as “marginal impact”. Moreover, in series [4], the HMGCR protein expression result is reported as “apparent overexpression”.

For the compound `CCC(C)(C)c1ccc(CC(C)CN2C[C@@H](C)O[C@@H](C)C2)cc1` (some centres unmarked) [amorolfine, Amorolfine], in series [2], the “HCV replication” value was “inhibited HCV replication”. Also, the “impact on host cell ATP levels” value in series [3] (setting [5]) is reported as “marginal impact”.

`C[C@@H](Cc1ccc(C(C)(C)C)cc1)CN1C[C@@H](C)O[C@@H](C)C1` [fenpropimorph, Fenpropimorph]: in series [2], the “HCV replication” value is “inhibited HCV replication”. Further, the “impact on host cell ATP levels” value in series [3] is recorded as “marginal impact”.

For the compound Terconazole, in series [1], the “Max Eff (maximum effect, inhibition of viral replication)” value turned out to be 95 and the IC50 came to 1660 nM.
